According to US9567322B2, “Substituted tetrahydropyrans and method of use” (AbbVie S.á.r.l., priority 2014, dated 2017):

Target: T1, F508delCFTR (Homo sapiens, UniProt P13569, DEL508-508)
T1 construct: expressed in transfected cells; host or cells: CFBE41o- (CFBE41o-F508delCFTR-HRP), doxycycline-inducible
Assay: Cell Surface Expression-Horse Radish Peroxidase (CSE-HRP) assay
Assay type: cell-based
Conditions: CFBE41o-F508delCFTR-HRP cells; for EC50: cell surface expression, luminescence readout, 18-24 hours at 33° C., highest concentration tested 20 μM, 8-point curve; for Maximum % activity: maximum at any tested concentration, normalized to on-plate positive control (3 μM) and DMSO
Text: Cell Surface Expression-Horse Radish Peroxidase (CSE-HRP) Assay:
A cellular assay for measuring the F508delCFTR cell surface expression after correction with test compounds was developed in human lung derived epithelial cell line (CFBE41o-) (Veit G et al, (2012) Mol Biol Cell. 23(21): 4188-4202). This was achieved by expressing the F508delCFTR mutation along with a horseradish peroxidase (HRP) in the fourth exofacial loop and then measuring the HRP activity using luminescence readout from these cells, CFBE41o-F508delCFTR-HRP, that were incubated overnight with the test corrector compounds. Briefly, for this primary assay, the CFBE41o-F508delCFTR-HRP cells were plated in 384-well plates (Greiner Bio-one; Cat 781080) at 4,000 cells/well along with 0.5 μg/mL doxycycline to induce the F508delCFTR-HRP expression and further incubated at 37° C., 5% CO2 for 72 hours. The test compounds were then added at the required concentrations and further incubated for 18-24 hours at 33° C. The highest concentration tested was 20 μM with an 8-point concentration response curve using a 3-fold dilution. Three replicate plates were run to determine one EC50. All plates contained negative controls (dimethyl sulfoxide, DMSO) and positive controls (3 μM of 3-[(2R,4R)-4-({[1-(2,2-difluoro-1,3-benzodioxol-5-yl)cyclopropyl]carbonyl}amino)-7-methoxy-3,4-dihydro-2H-chromen-2-yl]benzoic acid) as well as on-plate concentration response of the positive control. Post incubation, the plates were washed 5× times with Dulbecco's phosphate buffered saline (DPBS), followed by the addition of the HRP substrate, luminol (50 μL), and measuring the HRP activity using luminescence readout on EnVision® Multilabel Plate Reader (Perkin Elmer; product number 2104-0010). The raw counts from the experiment are analyzed using Accelrys® Assay Explorer v3.3.
Z′ greater than 0.5 was used as passing quality control criteria for the plates.
The Z′ is defined as: 1−[3*SDPositive Control+3*SDNegative Control/Absolute(MeanPositive Control−MeanNegative Control)],
wherein “SD” is standard deviation.
The % activity measured at each of the 8 test concentrations of the test compound was normalized to the on-plate positive control using the following formula: % activity=[(test compound response−DMSO response)/(positive control response−DMSO response)]*100
The maximum % activity achieved for the test compound at any tested concentration is presented in Table 1 along with the EC50 calculated using the following general sigmoidal curve with variable Hill slope equation (described as Model 42 in the Accelrys® Assay Explorer v3.3 software): y=(a−d)/(1+(x/c)^b)+d General sigmoidal curve with concentration, response, top, bottom, EC50 and Hill slope.
This model describes a sigmoidal curve with an adjustable baseline, a. The equation can be used to fit curves where response is either increasing or decreasing with respect to the independent variable, “x”.
“x” is a concentration of drug under test.
“a” is the maximum response, and “d” is the minimum response
“c” is the inflection point (EC50) for the curve. That is, “y” is halfway between the lower and upper asymptotes when x=c.
“b” is the slope-factor or Hill coefficient. The sign of b is positive when the response increases with increasing dose and is negative when the response decreases with increasing dose (inhibition).

T1 sequence (P13569 with tags, fused parts or gaps DEL508-508): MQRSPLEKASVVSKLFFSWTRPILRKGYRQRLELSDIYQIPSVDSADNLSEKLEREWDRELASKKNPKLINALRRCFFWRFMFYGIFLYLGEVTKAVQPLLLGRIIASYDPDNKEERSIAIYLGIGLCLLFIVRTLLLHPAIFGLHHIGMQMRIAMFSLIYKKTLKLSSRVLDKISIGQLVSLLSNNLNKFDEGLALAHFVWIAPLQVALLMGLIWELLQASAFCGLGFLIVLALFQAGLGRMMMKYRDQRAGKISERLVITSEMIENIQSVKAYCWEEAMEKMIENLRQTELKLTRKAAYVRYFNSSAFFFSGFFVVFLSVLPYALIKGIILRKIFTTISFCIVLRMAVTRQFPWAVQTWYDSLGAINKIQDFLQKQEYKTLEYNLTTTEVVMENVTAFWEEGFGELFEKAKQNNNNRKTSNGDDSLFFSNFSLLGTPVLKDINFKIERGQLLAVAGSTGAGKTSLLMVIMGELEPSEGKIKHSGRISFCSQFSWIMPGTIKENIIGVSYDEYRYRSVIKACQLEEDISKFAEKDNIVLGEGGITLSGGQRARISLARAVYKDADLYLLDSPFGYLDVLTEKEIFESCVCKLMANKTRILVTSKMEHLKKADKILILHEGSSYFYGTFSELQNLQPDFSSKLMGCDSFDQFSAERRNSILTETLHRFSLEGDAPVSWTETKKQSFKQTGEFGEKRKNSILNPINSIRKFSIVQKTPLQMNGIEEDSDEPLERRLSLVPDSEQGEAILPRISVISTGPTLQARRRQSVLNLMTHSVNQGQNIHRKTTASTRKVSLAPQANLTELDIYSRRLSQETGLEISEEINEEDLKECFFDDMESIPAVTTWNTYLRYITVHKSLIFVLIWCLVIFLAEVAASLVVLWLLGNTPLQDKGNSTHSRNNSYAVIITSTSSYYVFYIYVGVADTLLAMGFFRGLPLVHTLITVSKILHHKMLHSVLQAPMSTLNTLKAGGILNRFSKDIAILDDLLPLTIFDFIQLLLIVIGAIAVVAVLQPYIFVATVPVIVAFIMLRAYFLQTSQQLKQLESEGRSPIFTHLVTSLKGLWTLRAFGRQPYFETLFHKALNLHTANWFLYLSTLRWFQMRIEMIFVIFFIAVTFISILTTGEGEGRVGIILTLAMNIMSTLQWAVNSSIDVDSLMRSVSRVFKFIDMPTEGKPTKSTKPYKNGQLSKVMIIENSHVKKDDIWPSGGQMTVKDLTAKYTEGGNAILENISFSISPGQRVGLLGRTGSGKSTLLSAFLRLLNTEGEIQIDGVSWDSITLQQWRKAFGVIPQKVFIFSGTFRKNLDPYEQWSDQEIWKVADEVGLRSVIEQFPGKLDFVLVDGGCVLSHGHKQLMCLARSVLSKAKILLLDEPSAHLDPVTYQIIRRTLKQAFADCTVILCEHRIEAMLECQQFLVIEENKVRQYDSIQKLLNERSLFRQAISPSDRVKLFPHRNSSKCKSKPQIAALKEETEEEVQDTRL

Structure (SMILES)	EC50	Maximum % activity
O=C(O)c1ccc([C@H]2C[C@H](NC(=O)C3(c4ccc5c(c4)OC(F)(F)O5)CC3)C[C@@H](c3ccccc3)O2)cc1 (racemic) [Example 49, rac-4-[(2R,4R,6S)-4-({[1-(2,2-difluoro-1,3-benzodioxol-5-yl)cyclopropyl]carbonyl}amino)-6-phenyltetrahydro-2H-pyran-2-yl]benzoic acid]	3080 nM	77%
Cc1ccc(C(=O)O)cc1[C@H]1C[C@@H](NC(=O)C2(c3ccc4c(c3)OC(F)(F)O4)CC2)C[C@@H](c2ccccc2)O1 (racemic) [Example 70, rac-3-[(2R,4S,6S)-4-({[1-(2,2-difluoro-1,3-benzodioxol-5-yl)cyclopropyl]carbonyl}amino)-6-phenyltetrahydro-2H-pyran-2-yl]-4-methylbenzoic acid]	910 nM	92%
COC(=O)c1cccc([C@H]2C[C@H](NC(=O)C3(c4ccc5c(c4)OC(F)(F)O5)CC3)CCO2)c1 (racemic) [Example 4, methyl rac-3-[(2R,4R)-4-({[1-(2,2-difluoro-1,3-benzodioxol-5-yl)cyclopropyl]carbonyl}amino)tetrahydro-2H-pyran-2-yl]benzoate]	3110 nM	23%
COC(=O)c1ccc([C@@H]2C[C@H](NC(=O)C3(c4ccc5c(c4)OC(F)(F)O5)CC3)CCO2)cc1 [Example 28, methyl 4-[(2S,4R)-4-({[1-(2,2-difluoro-1,3-benzodioxol-5-yl)cyclopropyl]carbonyl}amino)tetrahydro-2H-pyran-2-yl]benzoate]	3310 nM	73%
O=C(O)c1ccc([C@H]2C[C@@H](NC(=O)C3(c4ccc5c(c4)OC(F)(F)O5)CC3)C[C@@H](c3ccccc3)O2)cc1 (racemic) [Example 50, rac-4-[(2R,4S,6S)-4-({[1-(2,2-difluoro-1,3-benzodioxol-5-yl)cyclopropyl]carbonyl}amino)-6-phenyltetrahydro-2H-pyran-2-yl]benzoic acid]	520 nM	92%
COC(=O)c1ccc([C@@H]2C[C@@H](NC(=O)C3(c4ccc5c(c4)OC(F)(F)O5)CC3)C[C@H](c3ccc(C(=O)OC)cc3)O2)cc1 [Example 52, dimethyl rac-4,4′-[(2R,4r,6S)-4-({[1-(2,2-difluoro-1,3-benzodioxol-5-yl)cyclopropyl]carbonyl}amino)tetrahydro-2H-pyran-2,6-diyl]dibenzoate]	1800 nM	70%
COc1ccc([C@@H]2C[C@@H](NC(=O)C3(c4ccc5c(c4)OC(F)(F)O5)CC3)C[C@H](c3ccc(C(=O)O)cc3)O2)cc1 (racemic) [Example 56, rac-4-[(2R,4S,6S)-4-({[1-(2,2-difluoro-1,3-benzodioxol-5-yl)cyclopropyl]carbonyl}amino)-6-(4-methoxyphenyl)tetrahydro-2H-pyran-2-yl]benzoic acid]	1900 nM	89%
C[C@H]1C[C@@H](NC(=O)C2(c3ccc4c(c3)OC(F)(F)O4)CC2)C[C@@H](c2ccc(C(=O)O)cc2)O1 (single isomer, unassigned) [Example 58]	7370 nM	63%
COC(=O)c1cccc([C@H]2C[C@@H](NC(=O)C3(c4ccc5c(c4)OC(F)(F)O5)CC3)CCO2)c1 [Example 17, methyl 3-[(2R,4S)-4-({[1-(2,2-difluoro-1,3-benzodioxol-5-yl)cyclopropyl]carbonyl}amino)tetrahydro-2H-pyran-2-yl]benzoate]	1110 nM	81%
CCOC(=O)c1cccc([C@H]2C[C@@H](NC(=O)C3(c4ccc5c(c4)OC(F)(F)O5)CC3)C[C@@H](c3cccc(OC)c3)O2)c1 (racemic) [Example 68, ethyl rac-3-[(2R,4R,6S)-4-({[1-(2,2-difluoro-1,3-benzodioxol-5-yl)cyclopropyl]carbonyl}amino)-6-(3-methoxyphenyl)tetrahydro-2H-pyran-2-yl]benzoate]	1040 nM	108%
COC(=O)c1ccc([C@H]2C[C@@H](NC(=O)C3(c4ccc5c(c4)OC(F)(F)O5)CC3)CC(C)(C)O2)cc1 (racemic) [Example 34, methyl rac-4-[(2R,4R)-4-({[1-(2,2-difluoro-1,3-benzodioxol-5-yl)cyclopropyl]carbonyl}amino)-6,6-dimethyltetrahydro-2H-pyran-2-yl]benzoate]	1610 nM	105%
O=C(O)c1cccc([C@@H]2C[C@H](NC(=O)C3(c4ccc5c(c4)OC(F)(F)O5)CC3)C[C@H](c3ccccc3)O2)c1 [Example 26, 3-[(2S,4R,6R)-4-({[1-(2,2-difluoro-1,3-benzodioxol-5-yl)cyclopropyl]carbonyl}amino)-6-phenyltetrahydro-2H-pyran-2-yl]benzoic acid]	≥ 20000 nM	16%
COc1cccc([C@@H]2C[C@H](NC(=O)C3(c4ccc5c(c4)OC(F)(F)O5)CC3)C[C@H](c3cccc(C(=O)O)c3)O2)c1 (racemic) [Example 69, rac-3-[(2R,4R,6S)-4-({[1-(2,2-difluoro-1,3-benzodioxol-5-yl)cyclopropyl]carbonyl}amino)-6-(3-methoxyphenyl)tetrahydro-2H-pyran-2-yl]benzoic acid]	420 nM	85%
COC(=O)c1ccc([C@H]2CC(NC(=O)C3(c4ccc5c(c4)OC(F)(F)O5)CC3)C[C@@H](C3CC3)O2)cc1 (mixture of isomers) [Example 38, methyl rac-4-[(2R,6S)-6-cyclopropyl-4-({[1-(2,2-difluoro-1,3-benzodioxol-5-yl)cyclopropyl]carbonyl}amino)tetrahydro-2H-pyran-2-yl]benzoate]	2480 nM	84%
COC(=O)c1ccc([C@H]2C[C@@H](NC(=O)C3(c4ccc5c(c4)OC(F)(F)O5)CC3)C[C@@H](c3ccccc3)O2)c(C)c1 (racemic) [Example 62, methyl rac-4-[(2R,4S,6S)-4-({[1-(2,2-difluoro-1,3-benzodioxol-5-yl)cyclopropyl]carbonyl}amino)-6-phenyltetrahydro-2H-pyran-2-yl]-3-methylbenzoate]	880 nM	111%
COC(=O)c1cccc([C@H]2C[C@H](NC(=O)C3(c4ccc5c(c4)OC(F)(F)O5)CC3)C[C@@H](c3ccccc3)O2)c1 (racemic) [Example 22, methyl rac-3-[(2R,4R,6S)-4-({[1-(2,2-difluoro-1,3-benzodioxol-5-yl)cyclopropyl]carbonyl}amino)-6-phenyltetrahydro-2H-pyran-2-yl]benzoate]	2180 nM	63%
O=C(N[C@@H]1CCO[C@H](c2ccc3c(c2)OCO3)C1)C1(c2ccc3c(c2)OC(F)(F)O3)CC1 [Example 15, N-[(2S,4R)-2-(1,3-benzodioxol-5-yl)tetrahydro-2H-pyran-4-yl]-1-(2,2-difluoro-1,3-benzodioxol-5-yl)cyclopropanecarboxamide]	6700 nM	75%
O=C(O)c1cccc([C@H]2C[C@H](NC(=O)C3(c4ccc5c(c4)OC(F)(F)O5)CC3)CCO2)c1 (racemic) [Example 5, rac-3-[(2R,4R)-4-({[1-(2,2-difluoro-1,3-benzodioxol-5-yl)cyclopropyl]carbonyl}amino)tetrahydro-2H-pyran-2-yl]benzoic acid]	≥ 20000 nM	13%
COC(=O)c1ccc([C@@H]2C[C@H](NC(=O)C3(c4ccc5c(c4)OC(F)(F)O5)CC3)CCO2)c(C)c1 (single isomer, unassigned) [Example 40]	2100 nM	60%
